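Growth conditions: 96-well plates. Treatment: test compound, 48 hours, 5 concentrations. Analysis: linear interpolation between bracketing concentrations; unreached endpoints set to highest concentration. GI50 marks 50% less growth.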 Activity calls are given as the source filed them. Rule as the data show it: active = GI50 up to about 1.1 µM and inactive = higher.
How the values were obtained:
Assay in all cases: growth of human tumour cells (NCI), 48 h
ACHN = tested on: ACHN
CCRF-CEM = tested on: CCRF-CEM
HCT-116 = tested on: HCT-116
K562 = tested on: K562
LXFL 529 = tested on: LXFL 529
MOLT-4 = tested on: MOLT-4
Malme-3M = tested on: Malme-3M
OVCAR-3 = tested on: OVCAR-3
RPMI-8226 = tested on: RPMI-8226
SF-268 = tested on: SF-268
SNB-75 = tested on: SNB-75
COLO 205 = tested on: COLO 205
HCC 2998 = tested on: HCC 2998
OVCAR-8 = tested on: OVCAR-8
RXF 393 = tested on: RXF 393
A498 = tested on: A498
BT-549 = tested on: BT-549
DU-145 = tested on: DU-145
MDA-MB-435 = tested on: MDA-MB-435
NCI/ADR-RES = tested on: NCI/ADR-RES

Row | SMILES | GI50 (ACHN) | GI50 (CCRF-CEM) | GI50 (HCT-116) | GI50 (K562) | GI50 (LXFL 529) | GI50 (MOLT-4) | GI50 (Malme-3M) | GI50 (OVCAR-3) | GI50 (RPMI-8226) | GI50 (SF-268) | GI50 (SNB-75) | GI50 (COLO 205) | GI50 (HCC 2998) | GI50 (OVCAR-8) | GI50 (RXF 393) | GI50 (A498) | GI50 (BT-549) | GI50 (DU-145) | GI50 (MDA-MB-435) | GI50 (NCI/ADR-RES)
1 | CCOc1ccccc1NC(=O)CCc1n[nH]c(=S)o1 | > 100 µM (inactive) | > 100 µM (inactive) | > 100 µM (inactive) | > 100 µM (inactive) | > 100 µM (inactive) | > 100 µM (inactive) | > 100 µM (inactive) | > 100 µM (inactive) | > 100 µM (inactive) | > 100 µM (inactive) | > 100 µM (inactive) |  |  |  |  |  |  |  |  | 
2 | Cc1ccc(S(=O)(=O)NNS(C)(=O)=O)cc1 | > 100 µM (inactive) | > 100 µM (inactive) | > 100 µM (inactive) | > 100 µM (inactive) | > 100 µM (inactive) | > 100 µM (inactive) | > 100 µM (inactive) | > 100 µM (inactive) | > 100 µM (inactive) | > 100 µM (inactive) | > 100 µM (inactive) | > 100 µM (inactive) | > 100 µM (inactive) | > 100 µM (inactive) | > 100 µM (inactive) |  |  |  |  | 
3 | CCCCCC(/C=C/C1CCC(=O)C1)OCOCCOC (stereo not given) | 22.3 µM (inactive) | 35.3 µM (inactive) | 27 µM (inactive) | 25.8 µM (inactive) |  | 15.8 µM (inactive) | > 78.9 µM (inactive) | 41.4 µM (inactive) | 21.6 µM (inactive) | 29.3 µM (inactive) | 11.5 µM (inactive) | 48.8 µM (inactive) | 64.4 µM (inactive) | 33.9 µM (inactive) | 34 µM (inactive) | 48.2 µM (inactive) | 27.9 µM (inactive) | > 100 µM (inactive) | 33.2 µM (inactive) | 30 µM (inactive)
4 | O=C1CC(Br)c2c(Cl)sc(Cl)c21 (stereo not given) | 12.2 µM (inactive) | 0.403 µM (active) | 4.56 µM (inactive) | 2.17 µM (inactive) |  | 1.94 µM (inactive) | 12.1 µM (inactive) | 2.38 µM (inactive) | 1.43 µM (inactive) | 6.58 µM (inactive) | 15.2 µM (inactive) | 12.1 µM (inactive) | 12 µM (inactive) | 3.1 µM (inactive) | 2.39 µM (inactive) | 20.3 µM (inactive) | 20.8 µM (inactive) | 17 µM (inactive) | 2.39 µM (inactive) | 24 µM (inactive)
5 | O=c1/c(=C/c2ccc([N+](=O)[O-])o2)sc2n1[C@@H](c1ccc3c(c1)OCO3)C=C(c1cc(F)c(Cl)cc1Cl)N=2 | 16.1 µM (inactive) | 3.24 µM (inactive) | 5.11 µM (inactive) | 5.09 µM (inactive) |  | 8.91 µM (inactive) | 19.7 µM (inactive) | 16.8 µM (inactive) | 9.31 µM (inactive) | 28.7 µM (inactive) | 17.3 µM (inactive) | 18.7 µM (inactive) | 12.9 µM (inactive) | 11.9 µM (inactive) | 16.1 µM (inactive) | 56 µM (inactive) | 16.8 µM (inactive) | 21.6 µM (inactive) | 13.4 µM (inactive) | 34.4 µM (inactive)
6 | O=c1[nH]c2c(nc1NC13CC4CC(CC(C4)C1)C3)c(=O)oc1ccccc12 | > 100 µM (inactive) | > 100 µM (inactive) | > 100 µM (inactive) | > 100 µM (inactive) | > 100 µM (inactive) | > 100 µM (inactive) | > 100 µM (inactive) | > 100 µM (inactive) | > 100 µM (inactive) | > 100 µM (inactive) | 29.5 µM (inactive) | > 100 µM (inactive) | > 100 µM (inactive) | 32 µM (inactive) | 46.1 µM (inactive) |  |  |  |  | 
7 | CC1=Nn2c(nnc2-c2ccccc2Cl)NC(C)(C)C1 | > 100 µM (inactive) | 34.2 µM (inactive) | > 100 µM (inactive) | 42.9 µM (inactive) | 63.7 µM (inactive) | 47.3 µM (inactive) |  |  | 26.1 µM (inactive) | > 100 µM (inactive) | > 100 µM (inactive) | 54.2 µM (inactive) | > 100 µM (inactive) | > 100 µM (inactive) |  |  |  |  |  | 
8 | COc1cc2c(cc1OC)C1=Cc3cc(OC)c(OC)cc3C(C)N1C=C2 (stereo not given) | > 100 µM (inactive) | 27.3 µM (inactive) | 50.2 µM (inactive) | 25.9 µM (inactive) |  | 35.2 µM (inactive) | > 100 µM (inactive) | 32.1 µM (inactive) | 40 µM (inactive) | 21.5 µM (inactive) | 40 µM (inactive) | 22 µM (inactive) | > 100 µM (inactive) | 52 µM (inactive) | 57.4 µM (inactive) | 82.6 µM (inactive) | 34.6 µM (inactive) | > 100 µM (inactive) | 41.8 µM (inactive) | > 100 µM (inactive)
9 | CC(=O)c1cccc2c1CC1(C2)Cc2ccc3c(c2C1=O)CCC3 (stereo not given) | 47.9 µM (inactive) | 34.8 µM (inactive) | 27.7 µM (inactive) | 21.6 µM (inactive) |  | 25.3 µM (inactive) | 14.3 µM (inactive) | 23.5 µM (inactive) | 17.3 µM (inactive) | 40.7 µM (inactive) | 35.9 µM (inactive) | 26.5 µM (inactive) | 15 µM (inactive) | 57.1 µM (inactive) | 33 µM (inactive) | > 100 µM (inactive) | 82.2 µM (inactive) | 79.1 µM (inactive) | 32.1 µM (inactive) | 12.7 µM (inactive)
10 | O=[N+]([O-])c1cccc2nc3ccccc3c(NCCC[N+]3([O-])CCOCC3)c12 | 0.65 µM (active) | 0.0933 µM (active) | 0.0948 µM (active) | 0.223 µM (active) |  | 0.0687 µM (active) | 0.162 µM (active) | 0.17 µM (active) | 0.193 µM (active) | 0.164 µM (active) | 0.195 µM (active) | 0.0731 µM (active) | 0.0128 µM (active) | 0.21 µM (active) | 0.106 µM (active) | 0.164 µM (active) | 0.373 µM (active) | 0.206 µM (active) | 0.157 µM (active) | 11.4 µM (inactive)
11 | C=C1CCC(CC[C@@H]2CC[C@]3(OC2)O[C@@]2(O)CC[C@]3(C)OC2(C)C)C(C)(C)[C@H]1C/C=C1/C(=O)OC[C@@H]1O (stereo not given in full) | 2.65 µM (inactive) | 1.06 µM (active) | 0.71 µM (active) | 0.141 µM (active) |  | 1.59 µM (inactive) | 2.39 µM (inactive) | 2.57 µM (inactive) | 1.62 µM (inactive) | 3.01 µM (inactive) | 7.29 µM (inactive) | 5.43 µM (inactive) | 4.16 µM (inactive) | 1.22 µM (inactive) | 2.19 µM (inactive) | 5.93 µM (inactive) | 1.9 µM (inactive) | 4.83 µM (inactive) | 1.86 µM (inactive) | 0.906 µM (active)
12 | Fc1ccccc1/N=c1\oc2ccc(Br)cc2cc1-c1nc2ccccc2[nH]1 | 6.9 µM (inactive) | > 100 µM (inactive) | 8.61 µM (inactive) | > 25.6 µM (inactive) |  | > 30.8 µM (inactive) | 2.32 µM (inactive) | 6.15 µM (inactive) | 28 µM (inactive) | 0.522 µM (active) | 1.84 µM (inactive) | 35.6 µM (inactive) | 10.4 µM (inactive) | 9.23 µM (inactive) | 7.64 µM (inactive) | 2.58 µM (inactive) | 7.93 µM (inactive) | 17.1 µM (inactive) | 23.1 µM (inactive) | 10 µM (inactive)
